In the assay the test system is MDA-MB-231 cells. In words: DOX cytotoxicity after delivery of DOX-loaded MSNs, trypan blue exclusion. In kind it is cell-based. The following applies: DOX loaded into MSNs delivered by the microfluidic system, after 6 hours. On the procedure: In the experiment, doxorubicin (DOX), an anticancer drug, was loaded into MSNs and the MSNs were delivered into MDA-MB-231 cells.
Referring to FIG. 31, DOX cytotoxicity to MDA-MB-231 cells was measured by the trypan blue exclusion method, and it can be seen that approximately 85% of cancer cells were killed after 6 hours.

The structures appear in SMILES notation.

This note sets out measurements from US20220177819A1, “MICROFLUIDIC SYSTEM FOR INTRACELLULAR DELIVERY OF MATERIALS AND METHOD THEREFOR” (MxT BIOTECH, priority 2019, published 2022).

For `COc1cccc2c1C(=O)c1c(O)c3c(c(O)c1C2=O)C[C@@](O)(C(=O)CO)C[C@@H]3O[C@H]1C[C@H](N)[C@H](O)[C@H](C)O1` [DOX, doxorubicin], the cancer cells killed entry is “approximately 85%”.
